# Source: patent US12016831B2, “Polidocanol for use as immunomodulating agent” (priority 2018, dated 2024)
# Key:
# Type in all cases: in vivo, human
# subject with psoriasis = assay: Skin rashes in a subject with psoriasis after a single treatment; conditions: pictures at T=0 and after 30 days (FIG. 3)
# Procedure: FIG. 3. Treatment of peripheral venous insufficiency in a subject with psoriasis. The subject was treated with a single dose of diluted polidocanol 0.1%. Pictures were taken at T=0 (panel A) and after 30 days (panel B).
# [1] = test system: patients with C2 CEAP Class and bearing lower limbs varices; assay: Venous refilling time measurement via photoplethysmography (FPG); conditions: for venous refilling time (VRT): Diluted Polidocanol Group
# Text: The results were confirmed by photoplethysmography in a limited number of patients (n=20) wherein the measurement of venous refilling registered and examined, compared to the beginning of the treatment (after at least 4 sessions), has evidenced an increase of the peripheral venous refilling time in 17 out of 20 cases, indicating a plausible increase of venous resistance, i.e. a reduction of the peripheral reticulo-capillary bed or anyway of the superficial venous system. • 9. Improvement of the so-called “cellulitis”. The results were as follows:
# 40 patients with C2 CEAP Class and bearing lower limbs varices were examined via photoplethysmography exam with a Photoplethysmograph with Light Reflection Rheography/1-Channel (Vasoquant 1000 D-Ppg), they were divided into two homogeneous groups wherein the venous refilling time was measured before and after the hemodynamic therapy.
# In the Diluted Polidocanol Group the hemodynamic therapy was followed after 30 days by sclerosing treatment with diluted polidocanol, prepared as described in example 1. In the Basal Group, after hemodynamic therapy no further treatment was carried out.
# In the Basal Group of 20 patients, measurements of the refilling time of the superficial veins (SV) via photoplethysmography (FPG) exam were carried out at time zero, at time 1 (1 month) after hemodynamic (surgical) therapy on the varices, and at time 6 (6 months) without any further treatment.
# In the Diluted Polidocanol Group of 20 patients, measurements of the refilling time of the SV via FPG were carried out at time zero, at 1 month after hemodynamic (surgical) therapy on the varices, and at time 6 (6 months) after 3-4 sessions of sclerotherapy with the method of the invention.
# [2] = test system: patients suffering from venous insufficiency from minor to severe; assay: Likert survey on the "inflammatory" state in treated subjects
# Procedure: A commercially available polidocanol solution (Atossisclerol®) was diluted to 0.05% with a physiological saline solution. A 1.4% sodium bicarbonate solution was then added in order to obtain a final concentration of 0.06%. […] To the questions on the quality of life, 10 more specific questions were added in order to assess possible variations of the “inflammatory” state (n=100 patients) after the treatment. The survey was based on the indications of: “Evaluation by Likert-type scale 4-point (0-absent, 1-moderate, 2-severe and 3-very severe)” Elleuch et al. Adv Ther. 2016 September; 33(9):1536-49. […] The survey was tailored on the Likert scale and aimed at evaluating the reduction of a number of symptoms related to chronic phlogosis, such as arthrosic or arthritis manifestations (both generic and autoimmune) with particular reference to articular mobility and pain, in subjects not suffering from full-blown diseases and apparently normal. The answers were indexed according to a scale from 0 to 3 (or from 0 to 2). Table 1 summarizes the percent individuals reporting an improvement of 50% after 4 or 15 treatments according to the invention, by self-assessment according to the Liked scale described above, for each of the following sign or symptom: […]
# [3] = test system: venous, reticular or capillary vessels of treated subjects; assay: Clinical observation of treated subjects: venous functionality, sclerosing effect, side effects; conditions: for sclerosing effect (venous, reticular or capillary parietal damage): diluted solution according to the invention, intravenous
# Procedure: It is administered parenterally via the intravenous route.
# Moreover, its use, for at least 4 applications every two months, contributes in determining a higher overall well-being, associated with an anti-inflammatory activity and with the modulation of several molecular markers of the immune and endothelial system. This modulation in addition to ameliorating the venous system functionality, which is objectively observed in most of the treated subjects (95-98%) and results in a reduction of the limbs heaviness sensation and of orthostatic oedema and cellulitis, exert a systemic effects, often also accompanied by an improved skin trophism.
# There is almost no evidence even of quite common reactions (0.1-1%), such as superficial thrombophlebitis, allergic dermatitis, hives, erythema, skin necrosis.
# Therefore, a further aspect of the present invention is a composition comprising polidocanol in concentration below 0.1%, preferably of from 0.03 to 0.09% by weight, preferably of from 0.04 to 0.08%, preferably of 0.05%-0.06% in saline solution (0.9% w/V NaCl) for use as immunomodulating and anti-inflammatory agent.
# [4] = % of patients, n=100, after at least 4-5 treatments
# [5] = after several treatments (12-14)
# [6] = compared to the previous year, n=100
# [7] = up to 2 months after the treatment, n=100
substance,measurement,setting,value
Polidocanol [diluted polidocanol],skin rashes in a subject with psoriasis,subject with psoriasis,improve visibly the skin rashes
same,patients with an improved index according to FPG exam,"[1]; 6 months, after 3-4 sessions, 18 out of 20",90%
same,venous refilling time (VRT),"[1]; 1 month, basal 24.3±6.78, p<0.05",35.3 ± 4.14 s
same,venous refilling time (VRT),"[1]; 6 months, after 3-4 sessions, p<0.05 vs 1 month",37.6 ± 4.13 s
same,"refilling time at T6, Diluted Polidocanol Group vs basal group","[1]; T6 (6 months), basal group 35, p<0.001 Chi-squared test",38 s
same,cases with increase of the peripheral venous refilling time,"[1]; n=20, after at least 4 sessions, compared to the beginning of the treatment",17 out of 20
same,"1. Articular mobility, % individuals reporting an improvement of 50%","[2]; 4 treatments, 100 individuals",78%
same,"2. Reduction of pain, % individuals reporting improvement","[2]; 4 treatments, 100 individuals",68%
same,"3. Reduction of symptoms, % individuals reporting improvement","[2]; 4 treatments, 100 individuals",30%
same,"4. Skin trophism, % individuals reporting improvement","[2]; 4 treatments, 100 individuals",87%
same,"5. Hair, % individuals reporting improvement","[2]; 4 treatments, 100 individuals",90%
same,"6. Reduction of infections, % individuals reporting improvement","[2]; 4 treatments, 100 individuals",70%
same,"7. Feeing of wellness, % individuals reporting improvement","[2]; 4 treatments, 100 individuals",30%
same,"8. Feeling of lightness (lower limbs), % individuals reporting improvement","[2]; 4 treatments, 100 individuals",70%
same,"9. Improvement of ""cellulitis"", % individuals reporting improvement","[2]; 4 treatments, 100 individuals",54%
same,"10. Improvement of sleep-wake rythm, % individuals reporting improvement","[2]; 4 treatments, 100 individuals",30%
same,"Don't feel stopping treatment, % individuals","[2]; 4 treatments, 100 individuals",26%
same,"1. Articular mobility, % individuals reporting an improvement of 50%","[2]; 15 treatments, 200 individuals",90%
same,"2. Reduction of pain, % individuals reporting improvement","[2]; 15 treatments, 200 individuals",82%
same,"3. Reduction of symptoms, % individuals reporting improvement","[2]; 15 treatments, 200 individuals",60%
same,"4. Skin trophism, % individuals reporting improvement","[2]; 15 treatments, 200 individuals",98%
same,"5. Hair, % individuals reporting improvement","[2]; 15 treatments, 200 individuals",95%
same,"6. Reduction of infections, % individuals reporting improvement","[2]; 15 treatments, 200 individuals",85%
same,"7. Feeing of wellness, % individuals reporting improvement","[2]; 15 treatments, 200 individuals",70%
same,"8. Feeling of lightness (lower limbs), % individuals reporting improvement","[2]; 15 treatments, 200 individuals",98%
same,"9. Improvement of ""cellulitis"", % individuals reporting improvement","[2]; 15 treatments, 200 individuals",86%
same,"10. Improvement of sleep-wake rythm, % individuals reporting improvement","[2]; 15 treatments, 200 individuals",56%
same,"Don't feel stopping treatment, % individuals","[2]; 15 treatments, 200 individuals",56%
same,"Feeling of lightness in the lower limbs, 0: no variations","[2]; % of patients, n=100",2%
same,"Feeling of lightness in the lower limbs, 1: lighter limbs","[2]; % of patients, n=100",70%
same,"Feeling of lightness in the lower limbs, 2: lighter limbs and no oedema in the evenings","[2]; % of patients, n=100",28%
same,"Improvement of ""cellulitis"", 1: lighter limbs","[2]; % of patients, n=100",54%
same,"Improvement of ""cellulitis"", 2: lighter limbs and no oedema in the evenings","[2]; % of patients, n=100",36%
same,"Improvement of skin trophism, 0: no variations","[2]; % of patients, n=100",5%
same,"Improvement of the hair trophism, results positive","[2]; % of patients, n=100",90%
same,"Improvement of the sleep-wake rhythm, 0: no variations","[2]; % of patients, n=100",63%
same,"Improvement of the sleep-wake rhythm, 1: I don't know: maybe","[2]; % of patients, n=100",30%
same,"Improvement of the sleep-wake rhythm, 2: I'm sleeping better and wake-up more rested","[2]; % of patients, n=100",7%
same,"Improvement of the so-called ""cellulitis"", 0: no variations","[2]; % of patients, n=100",10%
same,"Reduction of pain related to chronic inflammatory events, 0: no variations","[2]; % of patients, n=100",20%
same,"Reduction of pain, 1: 20% reduction of pain-related symptoms","[2]; % of patients, n=100",12%
same,"Reduction of pain, 2: 50% reduction of pain-related symptoms","[2]; % of patients, n=100",68%
same,"Reduction of pain, 3: 70% reduction of pain-related symptoms","[2]; % of patients, n=100",0%
same,"Skin trophism, 1: slight improvement of the skin elasticity and of the trophism at the touch in the lower limbs","[2]; % of patients, n=100",87%
same,"Skin trophism, 2: slight improvement of the skin elasticity and of the trophism at the touch in the whole body","[2]; % of patients, n=100",60%
same,"Skin trophism, 3: improvement extended to the skin of the face","[2]; % of patients, n=100",16%
same,"Articular mobility, 0: no variations",[2]; [4],13%
same,"Articular mobility, 1: 20% mobility improvement",[2]; [4],7%
same,"Articular mobility, 2: 50% mobility improvement",[2]; [4],78%
same,"Articular mobility, 3: 70% mobility improvement",[2]; [4],2%
same,cases with improved skin elasticity and smoother skin also in the face,[2]; [5],16%
same,cases with improved skin elasticity and smoother skin in general,[2]; [5],60%
same,"Reduction of infective events, 0: no variations",[2]; [6],18%
same,"Reduction of infective events, 1: maybe less infective events",[2]; [6],12%
same,"Reduction of infective events, 2: definitely significant reduction",[2]; [6],70%
same,"Reduction of symptoms, 1: 20% attenuation of manifestations related to skin and articular mobility","[2]; number of patients, n=12",5 N.
same,"Reduction of symptoms, 2: 50% attenuation of manifestations related to skin and articular mobility","[2]; number of patients, n=12",4 N.
same,"Reduction of symptoms, 3: 70% attenuation of manifestations related to skin and articular mobility","[2]; number of patients, n=12",1 N.
same,"Reduction of symptoms of chronic degenerative pathologies of immune and inflammatory genesis, 0: no variations","[2]; number of patients, n=12 (e.g. psoriasis, rheumatoid arthritis)",2 N.
same,"Feeling of well-being, 0: no variations",[2]; [7],12%
same,"Feeling of well-being, 1: I feel a bit better but I don't know",[2]; [7],32%
same,"Feeling of well-being, 2: I feel a bit better in the sense that I have a feeling of well-being",[2]; [7],30%
same,"Feeling of well-being, 3: life without the treatment is not the same, I feel the need to undergo treatment",[2]; [7],26%
same,treated subjects in which ameliorated venous system functionality is objectively observed,[3]; at least 4 applications every two months,95-98%
same,side effects,"[3]; concentrations of the treatment according to the invention, vs traditional sclerotherapy",very limited to zero side effects
same,"sclerosing effect (venous, reticular or capillary parietal damage)",[3],does not exert a sclerosing effect
same,"sclerosing effect (venous, reticular or capillary parietal damage)",[3]; listed as polidocanol,non-sclerosing effect
same,polidocanol concentrations having a sclerosing effect on small calibre capillaries or reticular veins,"[3]; human, in vivo",≥ 0.12%
